Laboratory results taken from publication PMC4528135, “Kinetic Investigations of the Role of Factor Inhibiting Hypoxia-inducible Factor (FIH) as an Oxygen Sensor” (The Journal of Biological Chemistry, 2015).
Where two headings read alike, the source gives them in different places.

How the values were obtained:
FIH = biological target: T1, FIH (Homo sapiens, UniProt Q9NWT6); assay: Time course of FIH-catalyzed peptide hydroxylation; type: biochemical; conditions: 5 μM FIH, 500 μM peptide, atmospheric O2; for substrate hydroxylation (time course): 50 μM Fe(II), 500 μM 2OG, 1 mM L-ascorbate, 50 mM HEPES pH 7.5, 37 °C, MALDI-TOF-MS, triplicate assays
T1 construct: Full-length recombinant FIH, two- and three-consensus ankyrin repeats (2CA and 3CA) were produced as described; His6 (cleaved yes); made in house; host or cells: Escherichia coli BL21(DE3)
T1 sequence (Q9NWT6 whole entry): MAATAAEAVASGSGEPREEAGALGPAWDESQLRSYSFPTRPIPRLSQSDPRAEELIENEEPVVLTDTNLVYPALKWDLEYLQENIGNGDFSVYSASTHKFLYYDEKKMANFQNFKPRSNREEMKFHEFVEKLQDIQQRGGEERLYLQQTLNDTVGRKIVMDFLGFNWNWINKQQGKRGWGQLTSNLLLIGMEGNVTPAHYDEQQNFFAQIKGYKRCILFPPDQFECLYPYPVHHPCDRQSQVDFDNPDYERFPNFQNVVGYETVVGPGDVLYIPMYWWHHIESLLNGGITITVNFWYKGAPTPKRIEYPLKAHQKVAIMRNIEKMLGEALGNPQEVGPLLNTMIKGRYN
Protocol: (§1) Enzymatic assays were conducted as described ([46], [47]). Unless otherwise stated, the assay mixture typically contained 5 μM FIH, 500 μM substrate, 500 μM 2OG, 1 mM L-ascorbate, and 50 μM Fe(NH4)2(SO4)2 or 4 μM PHD2, 100 μM substrate, 300 μM 2OG, 4 mM L-ascorbate, and 50 μM Fe(NH4)2(SO4)2. For HIF-1α CODD19-mer, the background levels of methionine oxidation resulting from assay conditions were subtracted based on non-enzymatic controls ([48]).
FIGURE 3. PHD2- and FIH-catalyzed hydroxylation of HIF-1/2α peptide substrates. A, time course of HIF-1/2α CODD19-mer peptide hydroxylation; B, time course of HIF-1/2α NODD19-mer peptide hydroxylation. Conditions were as follows: 4 μM PHD2, 100 μM peptide, 50 μM Fe(II), 300 μM 2OG, 1 mM L-ascorbate in HEPES 50 mM (pH 7.5) were incubated at 37 °C at atmospheric O2. C, time course of HIF-1α CAD 19- and 35-mer peptide hydroxylation. D, time course of HIF-2α CAD 19- and 35-mer peptide hydroxylation. Conditions were as follows: 5 μM FIH, 500 μM peptide, 50 μM Fe(II), 500 μM 2OG, 1 mM L-ascorbate in HEPES 50 mM (pH 7.5) were incubated at 37 °C at atmospheric O2. The different hydroxylation levels were analyzed by MALDI-TOF-MS. Error bars, S.D. of triplicate assays.

[1] = biological target: T2, PHD2 (catalytic domain, residues 181–426) (Homo sapiens, UniProt Q9GZT9); assay: Steady-state kinetics of PHD2-catalyzed HIF-α CODD/NODD hydroxylation (MALDI-TOF-MS); type: biochemical; conditions: 4 mM L-ascorbate, 50 mM HEPES pH 7.5, 37 °C; for kcat^app: PHD2, 4 μM PHD2, 50 μM Fe(II); for Km: 50 μM Fe(II), triplicate assays
T2 construct: The catalytic domain of PHD2 (residues 181–426) was purified as described; made in house
T2 sequence (Q9GZT9 181-426): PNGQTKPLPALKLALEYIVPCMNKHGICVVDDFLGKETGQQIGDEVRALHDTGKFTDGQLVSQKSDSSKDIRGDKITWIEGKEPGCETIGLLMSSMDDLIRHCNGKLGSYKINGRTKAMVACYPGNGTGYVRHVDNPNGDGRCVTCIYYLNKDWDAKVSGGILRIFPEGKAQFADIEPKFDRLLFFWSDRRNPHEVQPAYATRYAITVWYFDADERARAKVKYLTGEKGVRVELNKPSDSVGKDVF
Protocol: as §1
The O2 dependence of FIH-catalyzed reactions was determined by conducting enzymatic assays in an “In vivo 500 Hypoxia Workstation” (Ruskinn) using buffers pre-equilibrated under different pO2 values for 24 h. The O2 dependence of PHD2-catalyzed reactions was determined by conducting enzymatic assays in sealed glass vials with variable N2/O2 contents ([42]). Reactions were stopped by spotting samples onto a matrix-assisted laser desorption/ionization-time of flight mass spectrometry (MALDI-TOF-MS) target plate and immediately mixing with α-cyano-4-hydroxycinnamic acid matrix. Hydroxylation levels were assessed by MALDI-TOF-MS as described ([46]).

PHD2 = biological target: T3, PHD2 (Homo sapiens, UniProt Q9GZT9); assay: Rapid quench-flow, PHD2 pre-steady-state product and succinate formation; type: biochemical; conditions: same mixture as stopped-flow, O2-saturated buffer 1:1, 5 °C, quenched with 1% CF3CO2H; for Rapid quench-flow kproduct: peptide hydroxylation by MALDI-TOF-MS, single exponential fit; for Rapid quench-flow ksuccinate: succinate by LC-MS
T3 construct: The catalytic domain of PHD2 (residues 181–426) was purified as described; made in house
T3 sequence (Q9GZT9 181-426): as above
Protocol: Rapid quench-flow experiments were performed using the same conditions and preparation of the assay mixture as used in stopped-flow experiments. Rapid quench-flow equipment (TgK Scientific Ltd.) in an anaerobic glove box was used for the experiments. Samples were quenched with 1% CF3CO2H and analyzed using MALDI-TOF-MS (peptide hydroxylation) as described above or liquid chromatography-mass spectrometry (LC-MS, for succinate production). For LC-MS, chromatographic separation was performed at 50 °C using a Waters ACQUITY BEH Amide 1.7-μm, 2.1 × 100-mm column on a Waters ACQUITY^TM ultraperformance liquid chromatography system (Waters Corp., Milford, MA). The following eluents were used: mobile phase A: 10% H2O, 90% acetonitrile (v/v), 10 mM ammonium formate; mobile phase B: 50% H2O, 50% acetonitrile (v/v), 10 mM ammonium formate. The elution gradient was 0–7.0 min linear from 10 to 30% B, and 7.0–9.0 min at 10% B for re-equilibration of the column. A constant flow rate of 0.4 ml/min was used. Analytes were detected in negative ionization mode using single reaction monitoring on a Quattro triple quadrupole mass spectrometer (Waters) with a cone voltage of 15 V and a capillary voltage of 3.0 kV. The desolvation temperature was set to 250 °C, and the source temperature was set to 120 °C.
To investigate correlation of the spectroscopic observations with rates of product accumulation, equivalent reactions were analyzed by rapid quench-flow methodology. Anerobically prepared PHD2·Fe(II)·2OG·peptide substrate complexes were mixed with O2-saturated buffer in a 1:1 ratio; reactions were quenched at defined time points with 1% aqueous CF3CO2H. The level of peptide hydroxylation was assessed by MALDI-TOF-MS ([42]), and succinate accumulation was analyzed by LC-MS. To obtain rate constants for product accumulation, the results were fitted with a single exponential function (Fig. 5E and Table 3).

[2] = CD spectroscopy and thermal denaturation of 2CA and 3CA; type: physicochemical; conditions: for secondary structure in solution by circular dichroism: 0.2 mg/ml protein in 10 mM sodium phosphate buffer pH 8.0 (Fig. 7), thermal denaturation 10 to 90 °C
Protocol: CD spectra were recorded using a Chirascan CD/fluorimeter (Applied Photophysics) spectrometer. Measurements were carried out at 20 °C in a 0.1 cm path length quartz cuvette, with protein concentration of 0.125 mg/ml in 5 mM sodium phosphate buffer (pH 8.0). Spectra were recorded in the wavelength range of 260–190 nm at 0.5-nm intervals, and each spectrum represents an average of three scans. Spectra were baseline-corrected by subtraction of the buffer spectrum. Data were expressed as the mean residue ellipticity ([θ], degrees·cm^2·dmol^−1). Thermal denaturation experiments were performed under the same conditions. The ellipticity at 220 nm (θ220) was monitored from 10 to 90 °C.
FIGURE 7. CD spectroscopic comparison of 2CA and 3CA secondary structure. Thermal denaturation experiments of 2CA and 3CA are shown. Conditions were as follows. 0.2 mg/ml protein in 10 mM sodium phosphate buffer (pH 8.0) was studied at 222 nm for thermal denaturation experiments between 10 and 90 °C. A, melting curves of 2CA. B, spectra of 2CA between 260 and 190 nm at 10 °C, after heating to 90 °C and after cooling again to 10 °C. C, melting curves of 3CA. D, spectra of 3CA between 260 and 190 nm at 10 °C, after heating to 90 °C, where the α-helical structure is predominantly lost, and after cooling again to 10 °C, where the structure is largely regained.

[3] = PHD2, 4 μM PHD2, peptide varied, 300 μM 2OG, read-out: Km^app(peptide)
[4] = PHD2 with the named substrate, 4 μM PHD2, 2OG varied, read-out: Km^app(2OG)

## DESGLPQLTSYDCEVNAPIQGSRNLLQGEELLRAL [HIF-1α CAD35-mer]
FIH
  substrate hydroxylation (time course): nearly complete substrate hydroxylation

## EELAQLAPTPGDAIISLDF [HIF-2α NODD, 19-mer fragment (398–416) of the HIF-2α N-terminal oxygen-dependent degradation domain, PHD2 substrate]
[1]
  kcat^app: 0.013 ± 0.001 s⁻¹
[1]; [3]
  Km: 50 ± 8 µM
[1]; [4]
  Km: 17 ± 5 µM
PHD2
  Rapid quench-flow kproduct: 0.0199 ± 0.0032 s⁻¹
  Rapid quench-flow ksuccinate: 0.0270 ± 0.0060 s⁻¹

## ELDLETLAPYIPMDGEDFQ [HIF-2α CODD, 19-mer fragment (523–541) of the HIF-2α C-terminal oxygen-dependent degradation domain, PHD2 substrate]
[1]
  kcat^app: 0.069 ± 0.006 s⁻¹
[1]; [3]
  Km: 34 ± 10 µM
[1]; [4]
  Km: 9 ± 2 µM
PHD2
  Rapid quench-flow kproduct: 0.0124 ± 0.0030 s⁻¹
  Rapid quench-flow ksuccinate: 0.0120 ± 0.0070 s⁻¹

## ESYLLPELTRYDCEVNVPVLGSSTLLQGGDLLRAL [HIF-2α CAD35-mer]
FIH
  substrate hydroxylation (time course): < 30%
FIH; standard conditions, 37 °C
  increase in activity on increasing peptide length (19-mer to 35-mer): 10%

## GSHMGSDLGKKLLEAARAGQDDEVRILMANGADVAAKDKNGSTPLHLAARNGHLEVVKLLLEAGADVNAQDKFGKTAFDISIDNGNEDLAEILQ [3CA, recombinant three-consensus ankyrin repeat protein produced in Escherichia coli]
[2]
  secondary structure in solution by circular dichroism: folded in solution

## SDKNGSTPLHLAARNGHLEVVKLLLEHGADVNAQDKWGKTAFDISIDNGNEDLAEILQ [2CA, recombinant two-consensus ankyrin repeat protein produced in Escherichia coli]
[2]
  secondary structure in solution by circular dichroism: does not possess significant secondary structure
[2]; thermal denaturation between 10 and 90 °C, sodium phosphate buffer pH 8.0
  temperature above which the protein is unfolded (CD): > 10 °C
